One compound from patent US7109380B2, “Cyclopentenedione antifungal compounds and methods for their use” (The University of Mississippi, priority 2004, dated 2006) can be followed below.

This assay has as its system Azole-susceptible and Azole-resistant Candida albicans Strains. The experiment in a line: Antifungal activity against azole-susceptible and azole-resistant patient isolates. Type of assay: cell-based. The note with it: for IC50 / IC80: Candida albicans. The procedure:
Antimicrobial Assay. Susceptibility testing is performed using a modified version of the National Committee for Clinical Laboratory Standards methods. M intracelluare is tested using a modified method of Franzblau, et al. Seventy-two to 96 h prior to the assay, the M intracellulare subculture is prepared by resuspending cells from the surface of the slant in Middlebrook 7H9 broth with OADC enrichment and incubating at 37° C. and 10% CO2. On the day of the assay, prepared samples (dissolved in DMSO) are serially-diluted using 20%/0.9% DMSO/saline and transferred in duplicate to 96 well flat bottom microplates. Candida spp. and C. neoformans inocula are prepared by picking 1–3 colonies from agar plates and resuspending in ˜5 mL 0.9% sterile saline. The absorption of 10011 of the saline suspensions and the M. intracellulare subculture at 630 nm using the EL-340 Biokinetics Reader (Bio-Tek Instruments, Vermont) is compared either the 0.5 McFarland standard of 0.03 (Mi) or standard curves. The microorganisms are diluted in broth [RPMI 1640/2% dextrose/MOPS at pH 7.3 (Cellgro) for Candida spp., Sabouraud Dextrose for C. neoformans, and 5% Alamar Blue™(BioSource International, Camarillo, Calif.) in Middlebrook 7H9 broth with OADC enrichment, pH=7.3 for M. intracellulare to afford final target inocula of: Candida spp.: 1.0×10^4, C. neoformans: 1.0×10^5, and M. intracellulare: 2.0×10^6 after addition to the samples. The microbial inocula are added to the samples to achieve a final volume of 200 μl. Growth (saline only), solvent and blank (media only) controls are included on each test plate. Drug controls [Ciprofloxacin (ICN Biomedicals, Ohio) for bacteria and Amphotericin B (ICN Biomedicals, Ohio) for fungi] are included in each assay. All organisms are read at either 630 nm using the EL-340 Biokinetics Reader (Bio-Tek Instruments, Vermont) or 544ex/590em, (M. intracellulare) using the Polarstar Galaxy Plate Reader (BMG LabTechnologies, Germany) prior to and after incubation: Candida spp. at 37° C. for 18–24 h, C. neoformans at 30° C. for 72 h, and M. intracellulare at 37° C. and 10% CO2 for 72 h. Percent growth is calculated and plotted versus test concentration to afford the IC50 (sample concentration that affords 50% growth of the organism) and the minimum inhibitory concentration (MIC) and minimum fungicidal or bactericidal concentrations (MFC/MBCs). The MIC is defined as the lowest test concentration that allows no detectable growth (for M. intracellulare no color change from blue to pink). Minimum fungicidal or bactericidal concentrations are determined by removing 5 μl from each clear (or blue) well, transferring to agar and incubating as previously mentioned. The MFC/MBC is defined as the lowest test concentration that kills 100% of the organism (allows no growth on agar).
The bioassay method is a modified version of the National Committee for Clinical Laboratory Standards methods, and is same as the one described in example 8 by which the biological data of compounds 1 and 2 (Tables 1 and 2) were obtained, except that the pH of the culture media for Candida spp. was changed from 7.3 to 4.5.

[1] abbreviates: Isolate 1, azole-susceptible strain (first listing, r6).
The mark [2] stands for this setting: Isolate 1, azole-susceptible strain (second listing, r10).
Setting [3] is: Isolate 2, azole-resistant strain.
Setting [4] is: Isolate 5, azole-resistant strain.
[5] abbreviates: Isolate 8, azole-resistant strain.
[6] abbreviates: Isolate 17, azole-resistant strain.

For orientation: IC50 means the concentration that inhibits the measured activity by half. A higher IC50 goes with weaker potency in that assay. For orientation: IC80 means the concentration needed for an effect of 80%. Low values mean an effect from little substance, high ones a need for much substance. Usually IC95 stands for the concentration needed for an effect of 95%.

Each structure is given as a SMILES string. Converted amounts (≈) assume the structure as drawn.

As to `OC(Cn1cncn1)(Cn1cncn1)c1ccc(F)cc1F` [Fluconazole, reference compound], the IC50 by setting is: under setting [1], 1 µg/mL (≈ 3.27 µM); under setting [2], 0.1 µg/mL (≈ 0.327 µM); under setting [3], 1 µg/mL (≈ 3.27 µM); under setting [4], 7.5 µg/mL (≈ 24.5 µM); under setting [5], 15 µg/mL (≈ 49 µM); under setting [6], 40 µg/mL (≈ 131 µM). The compound also showed an IC80 under setting [1] of 1.5 µg/mL (≈ 4.9 µM); an IC80 under setting [2] of 0.2 µg/mL (≈ 0.653 µM); an 80% effect concentration (IC80) under setting [3] of 5 µg/mL (≈ 16.3 µM); an IC80 under setting [4] of 10 µg/mL (≈ 32.7 µM); an IC80 under setting [5] of 20 µg/mL (≈ 65.3 µM); an IC80 under setting [6] of 95 µg/mL (≈ 310 µM). In addition, the concentration for an effect of 95% (IC95) was 2.00 µg/mL (≈ 6.53 µM) under setting [1]; 100.00 µg/mL (≈ 327 µM) under setting [2]; 10.00 µg/mL (≈ 32.7 µM) under setting [3]; 10.00 µg/mL (≈ 32.7 µM) under setting [4]; 25.00 µg/mL (≈ 81.6 µM) under setting [5]. The “Decreases in susceptibility to fluconazole of the isolates” value (resistant isolates relative to susceptible strain) is on record as “up to 400 fold”.
